We go through one substance from US20090275655A1, “Pharmaceutical Gallium Compositions and Methods” (priority 2008, published 2009).

The nature of the series: intravenous infusion in a cystic fibrosis patient, concentration of ionic gallium in sputum, plasma and whole blood. The format is in vivo, human patient. The procedure:
During one such treatment, this patient received an infusion of gallium citrate-nitrate over 5 days at a dose of 240 mg/day, or approximately 150 mg/m^2/day, and the concentration of ionic gallium in a deep-cough sputum specimen was then measured. The gallium concentration in the sputum was 3.2 μg/ml, or approximately 46 μmol/L, which is a concentration that is adequate to kill resistant Pseudomonas organisms in vivo. See Kaneko et al., J. Clin. Invest. 117:877-888 (2007).
Beginning about 1 month later, the same patient from Example 4 was given additional infusions of gallium citrate-nitrate at doses of 200 mg/m^2/day over 5 days, and the concentration of ionic gallium in deep-cough sputum specimens was again determined. […] The concentrations at days 5-11 are high, and even after cessation of treatment they remain levels that are believed to be therapeutic in vivo.

Where [1] appears, read: Treatment Number Two, 200 mg/m^2/d, end of infusion, Day 5 (verification repeat).

As for gallium citrate-nitrate, the “gallium concentration, Sputum” value amounted to 2.22 µg/mL (Treatment Number One, 150 mg/m^2/d, end of infusion, Day 5); 2.13 µg/mL (Treatment Number Two, 200 mg/m^2/d, end of infusion, Day 5); 2.65 µg/mL under setting [1]; 0.32 µg/mL (Treatment Number Two, Baseline (Time 0), one month after Treatment One); 1.83 µg/mL (Treatment Number Two, Post-Infusion, Day 6); 2.04 µg/mL (Treatment Number Two, Post-Infusion, Day 7). Moreover, the “gallium concentration, Sputum” value reads like this: (Treatment Number Two, Post-Infusion, Day 9) 4.35 µg/mL; (Treatment Number Two, Post-Infusion, Day 11) 4.78 µg/mL. Also, the “gallium concentration, Whole Blood” value (Treatment Number Two, 200 mg/m^2/d, end of infusion, Day 5 20:00 h) is 1.64 µg/mL. Besides, the “gallium concentration, Plasma” value under setting [1] came to 1.35 µg/mL. Further, for the setting “patient, following systemic (IV) administration”, the “sputum levels exceed plasma concentrations” value was “roughly 2 fold”.
